16 compounds from patent US20240294543A1, “CYCLOHEPTA-THIENO-DIAZEPINE DERIVATIVES AS GABA A GAMMA1 PAM” (Hoffmann-La Roche Inc., priority 2021, published 2024) can be followed below.

Where two headings read alike, the source gives them in different places.

The target in assay [1] is human GABAA α1β2γ1 receptor (Homo sapiens (Human), UniProt P14867+Q8N1C3). In words: Radioligand binding assay, competition for [3H]RO7239181, γ1-containing GABAA subtypes.
A further assay has as its target h-GABA-A α2β2γ1 (Homo sapiens (Human), UniProt P47869+Q8N1C3). The assay is described as follows: Two-electrode voltage clamp electrophysiology in Xenopus oocytes expressing GABAA receptors. The class given is cell-based. The settings on record: for Efficacy (GABA) %: % modulation of GABA EC20 = 100*(Fold increase−1), compound at about 30-fold its Ki α2β2γ1; for Fold increase h-GABA-A α2β2γ1 oocyte @ 30-fold Ki: Xenopus oocytes, GABA EC20, compound at about 30-fold its Ki α2β2γ1. Put shortly: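 Xenopus oocytes injected with receptor subunit RNA and recorded 3–5 days later by two-electrode voltage clamp at −80 mV, room temperature, pH 7.4. GABA applied at EC20 for 1.5 min, with and without test compound. Efficacy = extremum of the point-by-point ratio of the two responses, expressed as % modulation of GABA EC20; ≥3 oocytes per concentration.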
On the technique in general: In two-electrode clamp one electrode senses voltage and the other passes current.

Where [2] appears, read: Ki h-GABAA α1β2γ1, membranes of HEK293F cells, [3H]RO7239181 20-30 nM, Table 1.
The mark [3] stands for this setting: membranes of HEK293F cells, [3H]RO7239181 20-30 nM, Table 1, read-out: Ki h-GABAA α1β2γ1.
[4] abbreviates: Ki h-GABAA α1β2γ1, Table 3, reference compounds and examples.

The Ki is a dissociation constant, usually derived from enzyme kinetics or from competition with a known ligand.

`C[C@@H]1N=C(c2c(F)cccc2F)c2c(sc3c2COCCO3)-n2nc(C(=O)NC[C@@](C)(O)C(F)(F)F)nc21` [Example 46, (7S)-9-(2,6-difluorophenyl)-7-methyl-N-[(2R)-3,3,3-trifluoro-2-hydroxy-2-methyl-propyl]-13,16-dioxa-18-thia-2,3,5,8-tetrazatetracyclo[8.8.0.02,6.011,17]octadeca-1(10),3,5,8,11(17)-pentaene-4-carboxamide] returned a Ki in assay [1] (setting [2]) of 60 nM. In addition, at h-GABA-A α2β2γ1, the “Efficacy (GABA) %” value amounted to 84% and the “Fold increase h-GABA-A α2β2γ1 oocyte @ 30-fold Ki” value turned out to be 1.84.

Consider `C[C@@H]1N=C(c2c(F)cccc2F)c2c(sc3c2COC[C@H](C)O3)-n2nc(C(=O)N3CC(F)C3)nc21` [Example 40, [(7S,15S)-9-(2,6-difluorophenyl)-7,15-dimethyl-13,16-dioxa-18-thia-2,3,5,8-tetrazatetracyclo[8.8.0.02,6.011,17]octadeca-1(10),3,5,8,11(17)-pentaen-4-yl]-(3-fluoroazetidin-1-yl)methanone], for which the Ki in assay [1] (setting [3]) was 286 nM. Besides, at h-GABA-A α2β2γ1, the “Efficacy (GABA) %” value is 141% and the “Fold increase h-GABA-A α2β2γ1 oocyte @ 30-fold Ki” value came to 2.41.

In assay [1] (setting [2]), `Cc1nnc2n1-c1sc3c(c1C(c1c(F)cccc1Cl)=N[C@H]2C)COCCO3` [Example 35, (7S)-9-(2-chloro-6-fluoro-phenyl)-3,7-dimethyl-13,16-dioxa-18-thia-2,4,5,8-tetrazatetracyclo[8.8.0.02,6.011,17]octadeca-1(10),3,5,8,11(17)-pentaene] displayed a Ki of 47.2 nM. For the same compound, at h-GABA-A α2β2γ1, the “Efficacy (GABA) %” value is 61% and the “Fold increase h-GABA-A α2β2γ1 oocyte @ 30-fold Ki” value is listed as 1.61.

The compound `Cc1nnc2n1-c1sc3c(c1C(c1c(F)cccc1F)=N[C@H]2C)COCCC3` [Example 52, (7S)-9-(2,6-difluorophenyl)-3,7-dimethyl-13-oxa-18-thia-2,4,5,8-tetrazatetracyclo[8.8.0.02,6.011,17]octadeca-1(10),3,5,8,11(17)-pentaene] had a Ki in assay [1] (setting [4]) of 75.3 nM. Also, the inhibitory constant (Ki) in assay [1] (setting [2]) was 75.3 nM. Moreover, at h-GABA-A α2β2γ1, the “Efficacy (GABA) %” value stood at 170% and the “Fold increase h-GABA-A α2β2γ1 oocyte @ 30-fold Ki” value is recorded as 2.70.

Take `Cc1nnc2n1-c1sc3c(c1C(c1c(F)cccc1F)=N[C@H]2C)COCCO3` [Example 21, (7S)-9-(2,6-difluorophenyl)-3,7-dimethyl-13,16-dioxa-18-thia-2,4,5,8-tetrazatetracyclo[8.8.0.02,6.011,17]octadeca-1(10),3,5,8,11(17)-pentaene]: the Ki in assay [1] (setting [4]) and in assay [1] (setting [2]) was 52.6 nM in each case. Further, at h-GABA-A α2β2γ1, the “Efficacy (GABA) %” value is given as 140%. On h-GABA-A α2β2γ1, the “Fold increase h-GABA-A α2β2γ1 oocyte @ 30-fold Ki” value was 2.40.

With `Cc1nnc2n1-c1sc3c(c1C(c1c(F)cccc1F)=N[C@H]2C)CCCC[C@@H]3F` (single isomer, unassigned) [Example 12], the inhibitory constant (Ki) in assay [1] (setting [2]) is 45.7 nM. Besides, on h-GABA-A α2β2γ1, the “Efficacy (GABA) %” value is reported as 185% and the “Fold increase h-GABA-A α2β2γ1 oocyte @ 30-fold Ki” value is given as 2.85.

For the compound `Cc1nnc2n1-c1sc3c(c1C(c1c(F)cccc1F)=N[C@H]2C)OCCCC3` [Example 33, (7S)-9-(2,6-difluorophenyl)-3,7-dimethyl-12-oxa-18-thia-2,4,5,8-tetrazatetracyclo[8.8.0.02,6.011,17]octadeca-1(10),3,5,8,11(17)-pentaene], the affinity in assay [1] (setting [2]), expressed as Ki, was 380 nM. Further, at h-GABA-A α2β2γ1, the “Efficacy (GABA) %” value stood at 76% and the “Fold increase h-GABA-A α2β2γ1 oocyte @ 30-fold Ki” value was 1.76.

On to `C[C@@H]1N=C(c2c(F)cccc2F)c2c(sc3c2COCCO3)-n2nc(C(=O)NCC(C)(C)O)nc21` [Example 45, (7S)-9-(2,6-difluorophenyl)-N-(2-hydroxy-2-methyl-propyl)-7-methyl-13,16-dioxa-18-thia-2,3,5,8-tetrazatetracyclo[8.8.0.02,6.011,17]octadeca-1(10),3,5,8,11(17)-pentaene-4-carboxamide], for which the inhibition constant Ki in assay [1] (setting [3]) worked out at 103 nM. Besides, on h-GABA-A α2β2γ1, the “Efficacy (GABA) %” value was 101% and the “Fold increase h-GABA-A α2β2γ1 oocyte @ 30-fold Ki” value is on record as 2.01.

In assay [1] (setting [2]), `Cc1nnc2n1-c1sc3c(c1C(c1c(F)cccc1F)=N[C@H]2C)COC[C@H](C)O3` [Example 30, (7S,15S)-9-(2,6-difluorophenyl)-3,7,15-trimethyl-13,16-dioxa-18-thia-2,4,5,8-tetrazatetracyclo[8.8.0.02,6.011,17]octadeca-1(10),3,5,8,11(17)-pentaene] returned an inhibitory constant (Ki) of 205 nM. On h-GABA-A α2β2γ1, the “Efficacy (GABA) %” value is listed as 150% and the “Fold increase h-GABA-A α2β2γ1 oocyte @ 30-fold Ki” value stood at 2.50.

In assay [1] (setting [2]), `Cc1nnc2n1-c1sc3c(c1C(c1c(F)cccc1F)=N[C@H]2C)CCC(F)C(F)C3` (single isomer, unassigned) [Example 34] displayed a Ki of 103 nM. For the same compound, at h-GABA-A α2β2γ1, the “Efficacy (GABA) %” value is 134% and the “Fold increase h-GABA-A α2β2γ1 oocyte @ 30-fold Ki” value turned out to be 2.34.

In assay [1] (setting [2]), `Cc1nnc2n1-c1sc3c(c1C(c1c(F)cccc1F)=N[C@H]2C)CCCC(F)(F)C3` [Example 8, (7S)-9-(2,6-difluorophenyl)-15,15-difluoro-3,7-dimethyl-18-thia-2,4,5,8-tetrazatetracyclo[8.8.0.02,6.011,17]octadeca-1(10),3,5,8,11(17)-pentaene] came in with a Ki of 312 nM. On h-GABA-A α2β2γ1, the “Efficacy (GABA) %” value stood at 203% and the “Fold increase h-GABA-A α2β2γ1 oocyte @ 30-fold Ki” value is reported as 3.03.

In assay [1] (setting [2]), `C[C@@H]1N=C(c2c(F)cccc2F)c2c(sc3c2COCCO3)-n2nc(C(=O)NC[C@](C)(O)C(F)(F)F)nc21` [Example 47, (7S)-9-(2,6-difluorophenyl)-7-methyl-N-[(2S)-3,3,3-trifluoro-2-hydroxy-2-methyl-propyl]-13,16-dioxa-18-thia-2,3,5,8-tetrazatetracyclo[8.8.0.02,6.011,17]octadeca-1(10),3,5,8,11(17)-pentaene-4-carboxamide] came in with an inhibitory constant (Ki) of 93.4 nM. For the same compound, at h-GABA-A α2β2γ1, the “Efficacy (GABA) %” value came out at 89% and the “Fold increase h-GABA-A α2β2γ1 oocyte @ 30-fold Ki” value came to 1.89.

As for `Cc1nnc2n1-c1sc3c(c1C(c1c(F)cccc1Cl)=N[C@H]2C)COCCC3` [Example 61, (7S)-9-(2-chloro-6-fluoro-phenyl)-3,7-dimethyl-13-oxa-18-thia-2,4,5,8-tetrazatetracyclo[8.8.0.02,6.011,17]octadeca-1(10),3,5,8,11(17)-pentaene], the Ki in assay [1] (setting [2]) was 49.1 nM. Further, at h-GABA-A α2β2γ1, the “Efficacy (GABA) %” value was 165% and the “Fold increase h-GABA-A α2β2γ1 oocyte @ 30-fold Ki” value worked out at 2.65.

For `Cc1nnc2n1-c1sc3c(c1C(c1c(F)cccc1F)=N[C@H]2C)CCC[C@H](F)C3` (single isomer, unassigned) [Example 17], the Ki in assay [1] (setting [2]) came out at 30.2 nM. Besides, at h-GABA-A α2β2γ1, the “Efficacy (GABA) %” value is given as 135% and the “Fold increase h-GABA-A α2β2γ1 oocyte @ 30-fold Ki” value is 2.35.

Take `C[C@@H]1N=C(c2c(F)cccc2F)c2c(sc3c2COCCC3)-n2nc(C(=O)N[C@H]3C[C@@H](O)C3)nc21` [Example 64, (7S)-9-(2,6-difluorophenyl)-N-(cis-3-hydroxycyclobutyl)-7-methyl-13-oxa-18-thia-2,3,5,8-tetrazatetracyclo[8.8.0.02,6.011,17]octadeca-1(10),3,5,8,11(17)-pentaene-4-carboxamide]: on h-GABA-A α2β2γ1, the “Efficacy (GABA) %” value stood at 164% and the “Fold increase h-GABA-A α2β2γ1 oocyte @ 30-fold Ki” value is recorded as 2.64.

As for `Cc1nc2n(n1)-c1sc3c(c1C(c1c(F)cccc1F)=N[C@H]2C)COCCC3` [Example 57, (7S)-9-(2,6-difluorophenyl)-4,7-dimethyl-13-oxa-18-thia-2,3,5,8-tetrazatetracyclo[8.8.0.02,6.011,17]octadeca-1(10),3,5,8,11(17)-pentaene], at h-GABA-A α2β2γ1, the “Efficacy (GABA) %” value is listed as 73% and the “Fold increase h-GABA-A α2β2γ1 oocyte @ 30-fold Ki” value is listed as 1.73.
